Reference: patent US20210068395A1, “METHODS OF APPLYING ONE OR MORE CERTAIN HETEROARYL-1,2,4-TRIAZOLE AND HETEROARYL-TETRAZOLE COMPOUNDS TO CONTROL DAMAGE ON PLANTS, PROPAGATION MATERIAL THEREOF, AND PLANT DERIVED PRODUCTS” (SYNGENTA CROP PROTECTION AG, priority 2018, published 2021)

Experiments:
Assay type in all cases: in vivo
[1] = tested on: Diabrotica balteata (corn root worm); test: Diabrotica balteata (corn root worm), sprayed maize sprouts; conditions: 96 h, application rate 200 ppm, L2 larvae, 4 days after infestation, read-out: control in at least one of the two categories (mortality or growth inhibition)
Description: Maize sprouts placed onto an agar layer in 24-well microtiter plates were treated with aqueous test solutions prepared from 10,000 ppm DMSO stock solutions by spraying. After drying, the plates were infested with L2 larvae (6 to 8 per well). The samples were assessed for mortality and growth inhibition in comparison to untreated samples 4 days after infestation.

[2] = tested on: Euschistus heros (Neotropical Brown Stink Bug); test: Euschistus heros feeding/contact activity; conditions: 120 h, application rate 200 ppm, N2 nymphs on soybean leaves, 5 days after infestation, read-out: control in at least one of the two categories (mortality or growth inhibition)
Description: Soybean leaves on agar in 24-well microtiter plates were sprayed with aqueous test solutions prepared from 10,000 ppm DMSO stock solutions. After drying the leaves were infested with N2 nymphs. The samples were assessed for mortality and growth inhibition 5 days after infestation.

[3] = tested on: Frankliniella occidentalis (Western Flower Thrips); test: Frankliniella occidentalis feeding/contact activity; conditions: foliar, 168 h, application rate 200 ppm, mixed ages on sunflower leaf discs, 7 days after infestation
Description: Sunflower leaf discs were placed on agar in 24-well microtiter plates and sprayed with aqueous test solutions prepared from 10,000 DMSO stock solutions. After drying the leaf discs were infested with a Frankliniella population of mixed ages. The samples were assessed for mortality 7 days after infestation.

[4] = tested on: Myzus persicae (Green Peach Aphid); test: Myzus persicae feeding/contact activity; conditions: foliar, 144 h, application rate 200 ppm, sunflower leaf discs sprayed, 6 days after infestation
Description: Sunflower leaf discs were placed onto agar in a 24-well microtiter plate and sprayed with aqueous test solutions prepared from 10,000 ppm DMSO stock solutions. After drying, the leaf discs were infested with an aphid population of mixed ages. The samples were assessed for mortality 6 days after infestation.

[5] = tested on: Myzus persicae (Green Peach Aphid); test: Myzus persicae feeding activity (sucrose solution, Parafilm); conditions: 120 h, test rate 12.5 ppm, in sucrose solution, 5 days after infestation
Description: Test compounds prepared from 10,000 ppm DMSO stock solutions were applied by pipette into 24-well microtiter plates and mixed with sucrose solution. The plates were closed with a stretched Parafilm. A plastic stencil with 24 holes was placed onto the plate and infested pea seedlings were placed directly on the Parafilm. The infested plate was closed with a gel blotting paper and another plastic stencil and then turned upside down. The samples were assessed for mortality 5 days after infestation.

[6] = tested on: Plutella xylostella (Diamond Back Moth); test: Plutella xylostella feeding/contact activity, 96-well artificial diet; conditions: 216 h, application rate 500 ppm, 9 days after infestation
Description: 1, 2, 3, 4, 17, 19, 23, 26, 39, 41, 42, 54, 55, 56 Plutella xylostella (Diamond Back Moth):Feeding/Contact Activity 96-well microtiter plates containing artificial diet were treated with aqueous test solutions, prepared from 10,000 ppm DMSO stock solutions, by a liquid handling robot. After drying, eggs (˜30 per well) were infested onto a netted lid which was suspended above the diet. The eggs hatch and L1 larvae move down to the diet. The samples were assessed for mortality 9 days after infestation.

[7] = tested on: Plutella xylostella (Diamond Back Moth); test: Plutella xylostella feeding/contact activity, 24-well artificial diet; conditions: 192 h, application rate 200 ppm, 24-well artificial diet, 8 days after infestation, read-out: control in at least one of the two categories (mortality or growth inhibition)
Description: 24-well microtiter plates with artificial diet were treated with aqueous test solutions prepared from 10,000 ppm DMSO stock solutions by pipetting. After drying, Plutella eggs were pipetted through a plastic stencil onto a gel blotting paper and the plate was closed with it. The samples were assessed for mortality and growth inhibition in comparison to untreated samples 8 days after infestation.

[8] = tested on: Spodoptera littoralis (Egyptian Cotton Leaf Worm); test: Spodoptera littoralis feeding/contact activity; conditions: foliar, 72 h, application rate 200 ppm, L1 larvae on cotton leaf discs, 3 days after infestation, read-out: control in at least one of the three categories (mortality or growth inhibition or anti-feeding)
Description: Cotton leaf discs were placed onto agar in 24-well microtiter plates and sprayed with aqueous test solutions prepared from 10,000 ppm DMSO stock solutions. After drying the leaf discs were infested with five L1 larvae. The samples were assessed for mortality, anti-feeding and growth inhibition 3 days after infestation.

[9] = tested on: Spodoptera littoralis (Egyptian Cotton Leaf Worm); test: Spodoptera littoralis systemic activity (lettuce); conditions: 144 h, test rate 12.5 ppm, root uptake in lettuce, 6 days after infestation, read-out: control in at least one of the three categories (mortality or growth inhibition or anti-feeding)
Excerpt: Test compounds were applied by pipette prepared from 10,000 ppm DMSO stock solutions into 24-well plates and mixed with agar. Lettuce seeds were placed onto the agar and the multi well plate was closed by another plate which contained also agar. After 7 days the compound was absorbed by the roots and the lettuce grew into the lid plate. The lettuce leaves were then cut off into the lid plate. Spodoptera eggs were pipetted through a plastic stencil onto a humid gel blotting paper and the lid plate was closed with it. The samples were assessed for mortality, anti-feeding and growth inhibition 6 days after infestation.

[10] = tested on: Aphis craccivora (Black Bean Aphid); test: Aphis craccivora mixed population, contact/feeding; conditions: 120 h, test rate 200 ppm, pea seedlings sprayed, 5 days after treatment
Description: Pea seedlings infested with mixed aged aphid population were treated with diluted test solutions in a spray chamber. 5 days after treatment, samples were assessed for mortality.

[11] = tested on: Aphis craccivora (Black Bean Aphid); test: Aphis craccivora mixed population, systemic/feeding; conditions: 120 h, test rate 12.5 ppm, pea seedlings in test solutions, 5 days
Description: Pea seedlings infested with mixed aged aphid population, were put into glass vials with test solutions. 5 days later, samples were assessed for mortality.

[12] = tested on: Carpocapsa (Cydia) Pomonella (Codling Moth); test: Carpocapsa (Cydia) pomonella larvicide, feeding/contact; conditions: 336 h, test rate 50 ppm, L1 larvae on diet cubes, 14 days after infestation, read-out: control in at least one of the two categories (mortality or growth inhibition)
Description: Diet cubes coated with paraffin were sprayed with diluted test solutions in an application chamber. After drying off the treated cubes (10 replicates) were infested with 1 L1 larvae. Samples were incubated at 26-27° C. and checked 14 days after infestation for mortality and growth inhibition.

[13] = tested on: Nilaparvata lugens (Brown Plant Hopper); test: Nilaparvata lugens larvicide, feeding/contact; conditions: 168 h, test rate 200 ppm, N3 nymphs on sprayed rice plants, 7 days after treatment, read-out: control in at least one of the two categories (mortality or growth inhibition)
Description: Rice plants were treated with the diluted test solutions in a spray chamber. After drying plants were infested with ˜20 N3 nymphs. 7 days after the treatment samples were assessed for mortality and growth inhibition.

[14] = tested on: Nilaparvata lugens (Brown Plant Hopper); test: Nilaparvata lugens larvicide, systemic into water; conditions: 168 h, test rate 12.5 ppm, into nutritive solution of rice plants, N3 nymphs, 7 days after infestation, read-out: control in at least one of the two categories (mortality or growth inhibition)
Description: Rice plants cultivated in a nutritive solution were treated with the diluted test solutions into nourishing cultivation system. 1 day after application plants were infested with ˜20 N3 nymphs. 7 days after infestation samples were assessed for mortality and growth inhibition.

CC(c1ncnn1-c1ncccn1)N(C)C(=O)c1cc(C(F)(F)F)cc(C(F)(F)F)c1 (stereo not drawn) [Compound 1]
≥ 80%: percent control (mortality or growth inhibition) at 200 ppm [1] | percent control (mortality or growth inhibition) at 200 ppm [2] | mortality at 200 ppm [3] | mortality at 200 ppm [4] | mortality at 12.5 ppm [5] | mortality at 500 ppm [6] | percent control (mortality or growth inhibition) at 200 ppm [7] | percent control (mortality, anti-feedant effect or growth inhibition) at 200 ppm [8] | percent control (mortality, anti-feedant effect or growth inhibition) at 12.5 ppm [9] | mortality at 200 ppm [10] | mortality at 12.5 ppm [11] | percent control (mortality or growth inhibition) at 50 ppm [12] | percent control (mortality or growth inhibition) at 200 ppm [13] | percent control (mortality or growth inhibition) at 12.5 ppm [14]

CC(c1ncnn1-c1ncccn1)N(CC1CC1)C(=O)c1cc(C(F)(F)F)cc(C(F)(F)F)c1 (stereo not drawn) [Compound 3]
≥ 80%: percent control (mortality or growth inhibition) at 200 ppm [1] | percent control (mortality or growth inhibition) at 200 ppm [2] | mortality at 200 ppm [3] | mortality at 200 ppm [4] | mortality at 12.5 ppm [5] | mortality at 500 ppm [6] | percent control (mortality or growth inhibition) at 200 ppm [7] | percent control (mortality, anti-feedant effect or growth inhibition) at 200 ppm [8] | percent control (mortality, anti-feedant effect or growth inhibition) at 12.5 ppm [9] | mortality at 200 ppm [10] | mortality at 12.5 ppm [11] | percent control (mortality or growth inhibition) at 50 ppm [12] | percent control (mortality or growth inhibition) at 200 ppm [13] | percent control (mortality or growth inhibition) at 12.5 ppm [14]

CC(NC(=O)c1cc(C(F)(F)F)cc(C(F)(F)F)c1)c1ncnn1-c1ncccn1 (stereo not drawn) [Compound 4]
≥ 80%: percent control (mortality or growth inhibition) at 200 ppm [1] | percent control (mortality or growth inhibition) at 200 ppm [2] | mortality at 200 ppm [3] | mortality at 200 ppm [4] | mortality at 12.5 ppm [5] | mortality at 500 ppm [6] | percent control (mortality or growth inhibition) at 200 ppm [7] | percent control (mortality, anti-feedant effect or growth inhibition) at 200 ppm [8] | percent control (mortality, anti-feedant effect or growth inhibition) at 12.5 ppm [9] | mortality at 200 ppm [10] | mortality at 12.5 ppm [11] | percent control (mortality or growth inhibition) at 50 ppm [12] | percent control (mortality or growth inhibition) at 200 ppm [13] | percent control (mortality or growth inhibition) at 12.5 ppm [14]
